Source: PubChem BioAssay AID1918994 (Molecular Pharmacology Branch, DTP, NCI, 2023)
Blank lines part the entries; values can stand above or below the compound they belong to.

Tested on: 292921-168-R-J2-PDC complex spheroid growth
Experiment: Anticancer human tumor 292921-168-R-J2-PDC patient-derived pancreatic carcinoma cell line growth inhibition [AhR]
Conditions: for IC50: curve of first compound; for viability, T/C: stronger effect = lower value
Procedure, shortened: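 Spheroids combined tumor cells with HUVEC endothelial cells and human MSCs as stroma. AhR antagonists were paired with standard or investigational drugs, each dosed in half-log steps down from near clinical Cmax, or from 10 microM where Cmax was unknown.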

[1] = second compound 0.1 µM, first compound 0.00949 µM
[2] = second compound 0.1 µM, first compound 0.03 µM
[3] = second compound 0.1 µM, first compound 0.0949 µM
[4] = second compound 0.1 µM, first compound 0.3 µM
[5] = second compound 0.1 µM, first compound 0.949 µM
[6] = second compound 0.1 µM, first compound 3 µM
[7] = second compound 0.316 µM, first compound 0.00949 µM
[8] = second compound 0.316 µM, first compound 0.03 µM
[9] = second compound 0.316 µM, first compound 0.0949 µM
[10] = second compound 0.316 µM, first compound 0.3 µM
[11] = second compound 0.316 µM, first compound 0.949 µM
[12] = second compound 0.316 µM, first compound 3 µM
[13] = second compound 1 µM, first compound 0.00949 µM
[14] = second compound 1 µM, first compound 0.03 µM
[15] = second compound 1 µM, first compound 0.0949 µM
[16] = second compound 1 µM, first compound 0.3 µM
[17] = second compound 1 µM, first compound 0.949 µM
[18] = second compound 1 µM, first compound 3 µM
[19] = second compound 3.16 µM, first compound 0.00949 µM
[20] = second compound 3.16 µM, first compound 0.03 µM
[21] = second compound 3.16 µM, first compound 0.0949 µM
[22] = second compound 3.16 µM, first compound 0.3 µM
[23] = second compound 3.16 µM, first compound 0.949 µM
[24] = second compound 3.16 µM, first compound 3 µM
[25] = second compound 10 µM, first compound 0.00949 µM
[26] = second compound 10 µM, first compound 0.03 µM
[27] = second compound 10 µM, first compound 0.0949 µM
[28] = second compound 10 µM, first compound 0.3 µM
[29] = second compound 10 µM, first compound 0.949 µM
[30] = second compound 10 µM, first compound 3 µM
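Note: spheroids exposed to compounds for seven days after three days of growth.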

IC50 (second compound 0.1 µM): > 3000 nM
IC50 (second compound 0.316 µM): > 3000 nM
IC50 (second compound 1 µM): > 3000 nM
IC50 (second compound 3.16 µM): > 3000 nM
IC50 (second compound 10 µM): 1430 nM
SMILES: CCN(c1cc(-c2ccc(CN3CCOCC3)cc2)cc(C(=O)NCc2c(C)cc(C)[nH]c2=O)c1C)C1CCOCC1 + Cc1ccccc1N=Nc1ccc(NC(=O)c2ccnn2C)c(C)c1
viability, T/C [1]: 98.1%
viability, T/C [2]: 90.7%
viability, T/C [3]: 96.7%
viability, T/C [4]: 89.5%
viability, T/C [5]: 86%
viability, T/C [6]: 80.5%
viability, T/C [7]: 93.4%
viability, T/C [8]: 85.2%
viability, T/C [9]: 81.7%
viability, T/C [10]: 80.7%
viability, T/C [11]: 71.9%
viability, T/C [12]: 76.8%
viability, T/C [13]: 82.1%
viability, T/C [14]: 87.8%
viability, T/C [15]: 88.8%
viability, T/C [16]: 79.1%
viability, T/C [17]: 85.7%
viability, T/C [18]: 69.5%
viability, T/C [19]: 72.2%
viability, T/C [20]: 74.9%
viability, T/C [21]: 72.5%
viability, T/C [22]: 68.2%
viability, T/C [23]: 67.3%
viability, T/C [24]: 58.8%
viability, T/C [25]: 57%
viability, T/C [26]: 58.2%
viability, T/C [27]: 51%
viability, T/C [28]: 57.4%
viability, T/C [29]: 53%
viability, T/C [30]: 44.8%

IC50 (second compound 0.1 µM): > 300 nM
IC50 (second compound 0.316 µM): > 300 nM
IC50 (second compound 1 µM): > 300 nM
IC50 (second compound 3.16 µM): > 300 nM
IC50 (second compound 10 µM): > 300 nM
SMILES: Nc1ncn(C2CC(O)C(CO)S2)c(=O)n1 (stereo not given) + Cc1ccccc1N=Nc1ccc(NC(=O)c2ccnn2C)c(C)c1
viability, T/C (second compound 0.1 µM, first compound 0.000949 µM): 96.1%
viability, T/C (second compound 0.1 µM, first compound 0.003 µM): 91.2%
viability, T/C [1]: 86.3%
viability, T/C [2]: 93%
viability, T/C [3]: 91.1%
viability, T/C [4]: 77.5%
viability, T/C (second compound 0.316 µM, first compound 0.000949 µM): 87.6%
viability, T/C (second compound 0.316 µM, first compound 0.003 µM): 92.3%
viability, T/C [7]: 93.3%
viability, T/C [8]: 81.5%
viability, T/C [9]: 82.6%
viability, T/C [10]: 76.6%
viability, T/C (second compound 1 µM, first compound 0.000949 µM): 83.6%
viability, T/C (second compound 1 µM, first compound 0.003 µM): 85%
viability, T/C [13]: 80.7%
viability, T/C [14]: 83.8%
viability, T/C [15]: 90%
viability, T/C [16]: 78.5%
viability, T/C (second compound 3.16 µM, first compound 0.000949 µM): 68.6%
viability, T/C (second compound 3.16 µM, first compound 0.003 µM): 66.1%
viability, T/C [19]: 72.4%
viability, T/C [20]: 79.9%
viability, T/C [21]: 82.2%
viability, T/C [22]: 64.1%
viability, T/C (second compound 10 µM, first compound 0.000949 µM): 64%
viability, T/C (second compound 10 µM, first compound 0.003 µM): 56.1%
viability, T/C [25]: 59%
viability, T/C [26]: 62.7%
viability, T/C [27]: 61.6%
viability, T/C [28]: 57.1%

IC50 (second compound 0.1 µM): 194 nM
IC50 (second compound 0.316 µM): 126 nM
IC50 (second compound 1 µM): 115 nM
IC50 (second compound 3.16 µM): 76.4 nM
IC50 (second compound 10 µM): 29.1 nM
SMILES: O=C(C=Cn1cnc(-c2cc(C(F)(F)F)cc(C(F)(F)F)c2)n1)NNc1cnccn1 + Cc1ccccc1N=Nc1ccc(NC(=O)c2ccnn2C)c(C)c1
viability, T/C [1]: 88.1%
viability, T/C [2]: 84.6%
viability, T/C [3]: 75.5%
viability, T/C [4]: 34.5%
viability, T/C [5]: 16%
viability, T/C [6]: 12%
viability, T/C [7]: 95.8%
viability, T/C [8]: 77.9%
viability, T/C [9]: 58.1%
viability, T/C [10]: 31%
viability, T/C [11]: 14.9%
viability, T/C [12]: 9.51%
viability, T/C [13]: 78.1%
viability, T/C [14]: 61.8%
viability, T/C [15]: 57.9%
viability, T/C [16]: 30.6%
viability, T/C [17]: 13%
viability, T/C [18]: 9.8%
viability, T/C [19]: 79.2%
viability, T/C [20]: 64%
viability, T/C [21]: 48.2%
viability, T/C [22]: 26.4%
viability, T/C [23]: 15.2%
viability, T/C [24]: 8.58%
viability, T/C [25]: 59.8%
viability, T/C [26]: 50.8%
viability, T/C [27]: 37.1%
viability, T/C [28]: 29.1%
viability, T/C [29]: 18%
viability, T/C [30]: 9.82%
